Test results published in PMC11217349, “Development of Nurr1 agonists from amodiaquine by scaffold hopping and fragment growing” (Communications Chemistry, 2024).
Several values for one entry are separate records, joined by “and”; a condition that tells them apart may be missing. Identical values can stand only once. Like-named read-outs stand apart in the source and are kept apart here.

What was measured:
[1] = target: T1, human Nurr1 (hinge region and ligand binding domain) (Homo sapiens, UniProt P43354); test: Gal4-Nurr1 hybrid reporter gene assay; assay type: cell-based; conditions: for max. activation: maximum effect vs. 0.1% DMSO control; for highest non-toxic concentration: Gal4-Nurr1 hybrid reporter gene assay
T1 construct: expressed in transfected cells; host or cells: HEK293T
T1 sequence (P43354 360-595 limits assumed): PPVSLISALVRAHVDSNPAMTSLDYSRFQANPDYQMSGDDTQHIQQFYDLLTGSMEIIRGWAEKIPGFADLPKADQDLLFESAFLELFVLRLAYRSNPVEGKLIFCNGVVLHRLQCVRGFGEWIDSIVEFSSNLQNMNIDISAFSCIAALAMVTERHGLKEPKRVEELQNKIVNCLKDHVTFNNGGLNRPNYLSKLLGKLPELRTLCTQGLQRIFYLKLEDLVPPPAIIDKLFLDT
Experimental: Nurr1 modulation was determined in a Gal4 hybrid reporter gene assay in HEK293T cells (German Collection of Microorganisms and Cell Culture GmbH, DSMZ) using pFR-Luc (Stratagene, La Jolla, CA, USA; reporter), pRL-SV40 (Promega, Madison, WI, USA; internal control) and pFA-CMV-hNurr1-LBD[14], coding for the hinge region and ligand binding domain of the canonical isoform of human Nurr1. […] After 24 h, the medium was changed to Opti-MEM without supplements, and cells were transiently transfected using Lipofectamine LTX reagent (Invitrogen, Carlsbad, CA, USA) according to the manufacturer’s protocol. Five hours after transfection, cells were incubated with the test compounds in Opti-MEM supplemented with penicillin (100 U/mL), streptomycin (100 μg/mL), and 0.1% DMSO for 16 h before luciferase activity was measured using the Dual-Glo Luciferase Assay System (Promega) according to the manufacturer’s protocol on a Tecan Spark luminometer (Tecan Deutschland GmbH, Crailsheim, Germany). Firefly luminescence was divided by Renilla luminescence and multiplied by 1000 resulting in relative light units (RLU) to normalize for transfection efficiency and cell growth. Fold activation was obtained by dividing the mean RLU of the test compound by the mean RLU of the untreated control. All samples were tested in at least three biologically independent experiments in duplicates. For dose-response curve fitting and calculation of EC50 values, the equation “[Agonist] vs. response -- Variable slope (four parameters)” was used in GraphPad Prism (version 7.00, GraphPad Software, La Jolla, CA, USA). Selectivity profiling was performed with identical procedures using pFA-CMV-Nur77-LBD[14], pFA-CMV-NOR-1-LBD[14], pFA-CMV-THRα-LBD[51], pFA-CMV-RARα-LBD[52], pFA-CMV-PPARα-LBD[53], pFA-CMV-PPARγ-LBD[53], pFA-CMV-PPARδ-LBD[53], pFA-CMV-LXRα-LBD[54], pFA-CMV-FXR-LBD[55] and pFA-CMV-hRXRα-LBD[56].

[2] = target: T2, Nurr1 LBD (Homo sapiens, UniProt P43354); test: Isothermal titration calorimetry (ITC); assay type: binding; conditions: 25 °C
T2 construct: Nurr1 LBD protein (5–30 µM, expressed as described previously[21]); made in house
T2 sequence (P43354 360-595 limits assumed): as above
Experimental: ITC experiments were conducted on an Affinity ITC instrument (TA Instruments, New Castle, DE) at 25 °C with a stirring rate of 75 rpm. Nurr1 LBD protein (5–30 µM, expressed as described previously[21]) in buffer (20 mM Tris pH 7.5, 100 mM NaCl, 5% glycerol) containing 1–4% DMSO was titrated with the test compounds (30–150 μM in the same buffer containing 1-4% DMSO) in 26 injections (1 × 1 µL, 25 × 3-4 μL) with an injection interval of 120-150 s. As control experiments, the test compounds were titrated to the buffer, and the buffer was titrated to the Nurr1 LBD protein under otherwise identical conditions. Results were analyzed using NanoAnalyze software (version 3.11.0, TA Instruments, New Castle, DE) with independent binding models.

[3] = Microsomal stability; assay type: in vitro ADME, rat; conditions: incubation of 36 with rat liver microsomes, listed as 36-NH2
Experimental: To determine microsomal stability, test compounds (10 μM) were incubated in 100 mM potassium phosphate buffer at pH 7.4 (total volume of 100 µL) containing 0.5 mg/mL male rat liver microsomes (Sprague-Dawley, no. M9066, Merck KGaA, Darmstadt) and 1 mM NADPH for 0, 15, 30, or 60 min. At the end of the incubation time, microsomal activity was terminated by the addition of 500 µL MeCN and subsequent centrifugation at 1700 g for 5 min. A reaction mixture containing heat-inactivated microsomes (95 °C, 10 min) was prepared as a control for each compound. 5 µL supernatant of each sample was analyzed and the remaining concentrations of the respective test compounds at each time point were determined by LC-MS/MS on an API-3200-QTrap (Sciex) with an Agilent Technologies 1100 series setup including a binary pump (G1311A), a degasser (G1322A), and a Shimadzu SIL 20 A HT autosampler under the control of Analyst 1.6 (Sciex). A XBridge BEH C18 (3.5 µm, 150 mm×3 mm, Waters, protected with a 0.5 µm frit) stationary phase was used in combination with a gradient method starting with 0.1% formic acid in water (A) and MeCN (B) as mobile phase (A:B = 80:20) for 6 min going to A: B = 50:50 after 8 min. 5 µL of supernatant diluted in mobile phase starting conditions was loaded onto the column, separated at a flow rate of 400 µL/min, and detected and quantified per Area of MRM (multiple reaction monitoring) with the following transitions: m/z 381.797/145.000 (34); m/z 395.125/158.200 (36); m/z 409.822/131.000 (41); m/z 407.838/171.100 (42).

[4] = Parallel artificial membrane permeability assay (PAMPA); assay type: in vitro ADME; conditions: 500 µM donor, pH 7.4, 18 h
Experimental: Passive lipid membrane diffusion of test compounds was determined using Merck Millipore MultiScreen Filter Plates (0.45 μm pore diameter, hydrophobic PVDF). The filter inserts were coated with 1% L-α-phosphatidylcholine (Fluka Analytical) in n-dodecan. The test compounds were then added to the donor compartment at a final concentration of 500 µM in a phosphate buffer pH 7.4 containing 5% DMSO with a total volume of 150 µL. The acceptor compartment was filled with 300 µL PBS containing 5% DMSO. Additionally, three equilibrium samples were prepared by directly adding the donor solution to the acceptor compartment for the calculation of log Pe values. The filter plates were incubated for 18 h before the test compound concentrations in the acceptor compartments and in the equilibrium, samples were determined by UV absorbance at 320 nm (34), 360 nm (36), 310 nm (41), or 315 nm (42) with external calibration in a 96 well quartz plate on a SpectraMax M2e microplate reader (Molecular Devices). logPe values were calculated according to the formula published by Sugano and colleagues.

[5] = Gal4-Nurr1 hybrid reporter, HEK293T, mean ± SD, n ≥ 3, read-out: EC50(Nurr1)
[6] = Gal4-Nurr1 hybrid reporter, HEK293T, mean ± SD, n ≥ 3
[7] = Table 2, Nurr1 agonism, read-out: pEC50 (converted)

Row | SMILES | max. activation ([1]; mean ± SD, n ≥ 3) | EC50 [1, 5] [nM] | further results
1 | CN(C)c1ccc(-c2ccc(C(=O)Nc3c(-c4ccc(Cl)c(Cl)c4)nc4c(Cl)cccn34)o2)cc1 [Compound 37, N-(8-Chloro-2-(3,4-dichlorophenyl)imidazo[1,2-a]pyridin-3-yl)-5-(4-(dimethylamino)phenyl)furan-2-carboxamidearboxamide] | 1.53±0.04 fold | 40 ± 10 | Kd [2]: 80 nM
2 | Cc1nc2c(Cl)cccn2c1NC(=O)c1ccc(-c2ccc(N3CCOCC3)cc2)o1 [Compound 39] |  |  | highest non-toxic concentration ([1]; HEK293T): inactive (10 µM^c); EC50(Nurr1) [1, 6]: inactive (10 µM^c)
3 | Cc1nc2c(Cl)cccn2c1NC(=O)c1ccc(-c2ccccc2)s1 [Compound 28] | 2.1 ± 0.1 fold | 3200 ± 400 | 
4 | Cc1[nH]c2c(Cl)cccc2c1N [Compound 6, 7-chloro-2-methyl-1H-indol-3-amine] |  |  | EC50(Nurr1) [1, 6]: unstable
5 | Cc1nc2c(Cl)cccn2c1NC(=O)c1ccc(-c2ccc(N3CCN(C)CC3)cc2)o1 [Compound 40] |  |  | highest non-toxic concentration ([1]; HEK293T): inactive (10 µM^d); EC50(Nurr1) [1, 6]: inactive (10 µM^d)
6 | CC(C)NCC(O)COc1cccc2ccccc12 (centres unmarked) [propranolol, reference compound] |  |  | logPe (PAMPA) [4]: -5.096 and -5.109 and -5.101 and -5.087 and -5.042 and -5.07
7 | Cc1cc(N)c2cccc(Cl)c2n1 [Compound 3, 8-chloro-2-methylquinolin-4-amine, reference compound] | 1.7 ± 0.1 fold |  | 
8 | CNc1ccc(-c2ccc(C(=O)Nc3c(C)nc4c(Cl)cccn34)o2)cc1 [Compound 35] | 1.8 ± 0.1 fold | 300 ± 20 | 
9 | Cc1nc2cccc(Cl)c2[nH]1 [Compound 7, 4-Chloro-2-methyl-benzimidazole] |  |  | EC50(Nurr1) [1, 6]: inactive (100 µM)
10 | Cc1nc2cc(Cl)ccn2c1N [Compound 9] |  |  | EC50(Nurr1) [1, 6]: inactive (100 µM); Kd (Nurr1 LBD) [2]: weak binding
11 | Nc1c(-c2ccccc2Cl)nc2c(Cl)cccn12 [Compound 19] |  |  | EC50(Nurr1) [1, 6]: inactive (100 µM)
12 | Nc1cnc2c(Cl)cccn12 [Compound 12, 3-Amino-8-chloroimidazo[1,2-a]pyridine] |  |  | Kd [2]: 5100 nM
13 | Cc1nc2c(Cl)cccn2c1NC(=O)c1ccc(-c2ccccc2)cc1 [Compound 30] |  |  | highest non-toxic concentration ([1]; HEK293T): inactive (10 µM^b); EC50(Nurr1) [1, 6]: inactive (10 µM^b)
14 | Cc1nc2c(Cl)cccn2c1NC(=O)c1ccc(-c2ccccc2)o1 [Compound 27] | 2.1 ± 0.1 fold | 4000 ± 1000 | 
15 | O=C(Nc1ccnc2cc(Cl)ccc12)c1ccc(-c2ccc(Cl)cc2)o1 [Compound 4, reference compound] |  |  | EC50 [1, 7]: 15800 nM
16 | CCN1CCN(c2cc(N3CCN(CC)CC3)nc(NCCNc3ccnc4cc(Cl)ccc34)n2)CC1 [Compound 1, reference compound] |  |  | EC50 [1, 7]: 20000 nM

Second part, led by results:

Row | max. activation ([1]; mean ± SD, n ≥ 3) | EC50 [1, 5] [nM] | SMILES | further results
17 | < 1.2-fold act. |  | Cc1cccc(-c2nc3c(Cl)cccn3c2N)c1 [Compound 21] | 
18 | 1.6 ± 0.1 fold | 14000 ± 2000 | Cc1ccc(-c2nc3c(Cl)cccn3c2N)cc1C [Compound 25] | 
19 | < 1.2-fold act. |  | CC(C)c1nc2c(Cl)cccn2c1N [Compound 14] | 
20 | 2.0 ± 0.2 fold | 12000 ± 2000 | Cc1ccc(-c2nc3c(Cl)cccn3c2N)cc1 [Compound 20] | 
21 | 2.0 ± 0.1 fold | 800 ± 200 | Cc1nc2c(Cl)cccn2c1NC(=O)c1ccc(-c2ccc(OC(F)(F)F)cc2)o1 [Compound 33] | 
22 | 1.8 ± 0.1 fold | 1600 ± 500 | Cc1nc2c(Cl)cccn2c1NC(=O)c1ccc(-c2ccc(Cl)cc2)o1 [Compound 26] | Kd [2]: 700 nM
23 | <1.2-fold activation |  | Cc1nc2c(Cl)cccn2c1NC(=O)c1ccc(-c2ccc(N)cc2)o1 [Compound 38] | AUC x10^5 (LC-MS peak area of 36 and its demethylated metabolites) ([3]; time 0 min): 0.0604 x10^5 and 0.0553 x10^5 and 0.0561 x10^5 and 0.0573 x10^5; AUC x10^5 (LC-MS peak area of 36 and its demethylated metabolites) ([3]; time 15 min): 1.99 x10^5 and 2.08 x10^5 and 1.81 x10^5 and 1.95 x10^5; AUC x10^5 (LC-MS peak area of 36 and its demethylated metabolites) ([3]; time 60 min): 4.34 x10^5 and 4.54 x10^5 and 4 x10^5 and 5.57 x10^5
24 | 1.7 ± 0.2 fold | 15000 ± 3000 | Nc1c(-c2ccc(Cl)cc2)nc2c(Cl)cccn12 [Compound 17] | 
25 | < 1.2-fold act. |  | Nc1c(-c2cccc(C(F)(F)F)c2)nc2c(Cl)cccn12 [Compound 23] | 
26 | 1.7 ± 0.1 fold | 9000 ± 3000 | Nc1c(-c2cccc(Cl)c2)nc2c(Cl)cccn12 [Compound 18] | 
27 | 1.8 fold and 1.8±0.1 fold |  | Nc1c(-c2ccc(Cl)c(Cl)c2)nc2c(Cl)cccn12 [Compound 24, 8-Chloro-2-(3,4-dichlorophenyl)imidazo[1,2-a]pyridine-3-amine] | EC50 [1, 7]: 398 nM; Kd [2]: 700 nM
28 | 2.0 ± 0.2 fold | 130 ± 20 | Cc1ccc(-c2ccc(C(=O)Nc3c(C)nc4c(Cl)cccn34)o2)cc1 [Compound 32] | 
29 | < 1.2-fold act. |  | Nc1c(-c2ccc(C(F)(F)F)cc2)nc2c(Cl)cccn12 [Compound 22] | 
30 | 1.4 ± 0.1 fold | 4000 ± 2000 | Nc1c(-c2ccccc2)nc2c(Cl)cccn12 [Compound 15] | 
31 | 1.8 ± 0.1 fold | 1100 ± 300 | Cc1nc2c(Cl)cccn2c1NC(=O)c1ccc(-c2ccc(C(F)(F)F)cc2)o1 [Compound 31] | 
32 | < 1.2-fold act. |  | Nc1c(-c2ccco2)nc2c(Cl)cccn12 [Compound 16] | 
33 | 2.0 ± 0.1 fold | 7000 ± 1000 | Cc1nc2c(Cl)cccn2c1N [Compound 8, 8-Chloro-2-methylimidazo[1,2-a]pyridine-3-amine] | Kd [2]: 2700 nM
